Assay results from US11006626B2, “Compounds for protection of cells” (Sulfateq B.V., priority 2012, dated 2021).

System: Human Embryo Kidney (HEK) 293 cells
Assay: Hypothermia/rewarming injury of HEK cells, trypan blue viability count
Format: cell-based
Conditions: for viability at 0.1 µM / viability at 1 µM / viability at 10 µM / viability at 100 µM / viability at 1000 µM / viability at 0.01 µM: Homo sapiens, HEK293, 24 h, read-out: % cells that survived; for viability at 0.1 µM / viability at 1 µM / viability at 10 µM / viability at 100 µM / viability at 1000 µM / viability at 0.01 µM / % cells that survived: 24 h at 4° C., 24 h rewarming; for % cells that survived, Mean: mean over the tested concentrations
Description: Human Embryo Kidney (HEK) 293 cells were cultured in DMEM cell culture medium (Life Technologies, 41965-052) supplemented with fetal calf serum, penicillin and streptomycin. Cells were seeded at a density of 0.8-1.2E6 mL-1 in 25 cm2 polystyrene flasks, placed in a 37° C.
The compounds were dissolved in dimethyl sulfoxide (DMSO) to several concentrations. Before commencing experiments, this stock solution was dissolved in pre-warmed DMEM and further diluted to obtain a concentration range from 10 nM-1 mM. Cell culture medium was then replaced by these dilutions and cells were incubated in the presence of the compound for 1 hour. After incubation, lids were closed tightly and flasks were placed in a 4° C. room and cooled for 24 hours. After this cooling period, cells were placed back in the 37° C. incubator with lids closed and were allowed to rewarm for another 24 hours.
After this rewarming period, microscopic images were taken to assess cell morphology (Nikon D5100, Nikon Diaphot-TMD). Cell culture medium was collected and centrifuged (4 minutes, 2000 rpm). The supernatant was collected and pH was immediately measured to prevent equilibration of the pH by the carbonate buffer in the medium, while the pelleted cells were resuspended in 5 mL of PBS. Cells remaining in the flask were washed twice with phosphate buffered saline (PBS) while the washing product was discarded. Subsequently, the cells were trypsinized by addition of 0.5 mL of trypsine and pooled with the resuspended pellet. This cell suspension was then stained at a final concentration of 0.2% trypan blue (Sigma, T8154), followed by manual assessment of viability and cell number on a Bürker-Türk hemocytometer. To conclude the assay, cell culture medium glucose levels were measured (Roche Accutrend Plus) as an indication of metabolic activity. All of these steps were performed with care to prevent mechanical stress to influence or alter the viability of the cells after cooling.
The amount represents the % cells that survived. […] In the control, the same procedure was applied to two badges of HEK cells.

Row | SMILES | viability at 0.1 µM (100 nM) [%] | viability at 1 µM (1 μM) [%] | viability at 10 µM (10 μM) [%] | viability at 100 µM (100 μM) [%] | viability at 1000 µM (1 mM) [%] | % cells that survived, Mean [%] | viability at 0.01 µM (10 nM) [%] | % cells that survived (10 nM) [%] | % cells that survived (100 nM) [%] | % cells that survived (1 μM) [%] | % cells that survived (10 μM) [%] | % cells that survived (100 μM) [%] | % cells that survived (1 mM) [%]
1 | Cc1c(C)c2c(c(C)c1O)CCC(C)(C(=O)NCc1ccc(F)cc1)O2 (centres unmarked) [SUL - 97, N-(4-fluorobenzyl)-6-hydroxy-2,5,7,8-tetramethylchroman-2-carboxamide] | 0 | 95.1 | 96.4 | 91.6 | 5.17 | 58 |  |  |  |  |  |  | 
2 | Cc1c(C)c2c(c(C)c1O)CCC(C)(C(=O)Nc1ccc(F)cc1)O2 (centres unmarked) [SUL - 106, N-(4-fluorophenyl)-6-hydroxy-2,5,7,8-tetramethylchroman-2-carboxamide] | 76.9 | 63.2 | 68.8 | 55.6 | 0 | 57 | 77.8 |  |  |  |  |  | 
3 | Cc1c(C)c2c(c(C)c1O)CCC(C)(C(=O)NCCCN1CCCCC1)O2 (centres unmarked) [SUL - 102, 6-hydroxy-2,5,7,8-tetramethyl-N-(3-(piperidin-1-yl)propyl)chroman-2-carboxamide] | 95.8 | 93.7 | 82 | 73.4 | 93.3 | 85 | 73.2 |  |  |  |  |  | 
4 | CCOC(=O)CN1CCN(C(=O)C2(C)CCc3c(C)c(O)c(C)c(C)c3O2)CC1 (centres unmarked) [SUL - 140, ethyl 2-(4-(6-hydroxy-2,5,7,8-tetramethylchroman-2-carbonyl)piperazin-1-yl)acetate] | 17.9 | 95.7 | 97 | 94.6 | 0 | 52 | 8.7 |  |  |  |  |  | 
5 | COC(=O)C1(C)CCc2c(c(C)c(C(C)C)c(O)c2C(C)C)O1 (centres unmarked) [SUL - 146, methyl 6-hydroxy-5,7-diisopropyl-2,8-dimethylchroman-2-carboxylate] | 17 | 90.6 | 80.7 | 85.5 | 0 | 46 | 0.96 |  |  |  |  |  | 
6 | CCCCNC(=O)C1(C)CCc2c(C)c(O)c(C)c(C)c2O1 (centres unmarked) [SUL - 91, N-butyl-6-hydroxy-2,5,7,8-tetramethylchroman-2-carboxamide] | 2.28 | 82.4 | 89.5 | 87.5 | 0 | 52 |  |  |  |  |  |  | 
7 | Cc1c(C)c2c(c(C)c1O)CC[C@@](C)(C(=O)O)O2 [SUL - 84, (S)-6-hydroxy-2,5,7,8-tetramethylchroman-2-carboxylic acid] | 6.22 | 19.8 | 70.1 | 95.7 | 94.5 | 57 |  |  |  |  |  |  | 
8 | Cc1c(C)c2c(c(C)c1O)CCC(C)(C(=O)N1CCOCC1)O2 (centres unmarked) [SUL - 95, (6-hydroxy-2,5,7,8-tetramethylchroman-2-yl)(morpholino)methanone] | 2.76 | 86.8 | 90.4 | 92.1 | 85.9 | 72 |  |  |  |  |  |  | 
9 | CC(C)=CCC/C(C)=C/CNC(=O)C1(C)CCc2c(C)c(O)c(C)c(C)c2O1 (centres unmarked) [SUL - 93, (E)-N-(3,7-dimethylocta-2,6-dien-1-yl)-6-hydroxy-2,5,7,8-tetramethylchroman-2-carboxamide] | 97 | 96.1 | 84 | 21.7 | 8 | 61 |  |  |  |  |  |  | 
10 | Cc1c(C)c2c(c(C)c1O)CC[C@](C)(C(=O)O)O2 [SUL - 85, (R)-6-hydroxy-2,5,7,8-tetramethylchroman-2-carboxylic acid] | 1.23 | 0 | 1.43 | 84.9 | 78.3 | 33 |  |  |  |  |  |  | 
11 | Cc1c(C)c2c(c(C)c1O)CCC(C)(CN1CCC[C@H]1CO)O2 (stereo partly drawn) [SUL - 134, 2-(((S)-2-(hydroxymethyl)pyrrolidin-1-yl)methyl)-2,5,7,8-tetramethylchroman-6-ol] |  |  |  |  |  | 79 |  | 87.43 | 86.34 | 87.74 | 86.58 | 88.82 | 36.51
12 | COC(=O)c1ccc(NC(=O)C2(C)CCc3c(C)c(O)c(C)c(C)c3O2)cc1 (centres unmarked) [SUL - 107, methyl 4-(6-hydroxy-2,5,7,8-tetramethylchroman-2-carboxamido)benzoate] | 95.7 | 92.7 | 94.8 | 37.6 | 28.9 | 59 | 4.42 |  |  |  |  |  | 
13 | Cc1c(C)c2c(c(C)c1O)CCC(C)(CN1CCC[C@H]1CO)O2 (stereo partly drawn) [SUL - 135, 2-(((S)-2-(hydroxymethyl)pyrrolidin-1-yl)methyl)-2,5,7,8-tetramethylchroman-6-ol] |  |  |  |  |  | 77 |  | 71.94 | 83.90 | 93.82 | 93.85 | 83.46 | 33.06
14 | CCCCN1CCN(C(=O)C2(C)CCc3c(C)c(O)c(C)c(C)c3O2)CC1 (centres unmarked) [SUL - 108, (4-butylpiperazin-1-yl)(6-hydroxy-2,5,7,8-tetramethylchroman-2-yl)methanone] | 40.9 | 94.2 | 96.8 | 96.6 | 0 | 55 | 0 |  |  |  |  |  | 
15 | Cc1c(C)c2c(c(C)c1O)CCC(C)(CN[C@H](CO)c1ccccc1)O2 (stereo partly drawn) [SUL - 129, 2-((((S)-2-hydroxy-1-phenylethyl)amino)methyl)-2,5,7,8-tetramethylchroman-6-ol] | 5.65 | 88.8 | 89.9 | 91.5 | 0 | 46 | 0 |  |  |  |  |  | 
16 | Cc1c2c(c(C(C)C)c(O)c1C(C)C)CCC(C)(C(=O)NO)O2 (centres unmarked) [SUL - 131, N,6-dihydroxy-5,7-diisopropyl-2,8-dimethylchroman-2-carboxamide] | 1.59 | 22.5 | 91.1 | 75.4 | 0 | 32 | 2.99 |  |  |  |  |  | 
17 | Cc1c(C)c2c(c(C)c1O)CCC(C)(C(=O)N1CCC[C@H]1CO)O2 (stereo partly drawn) [SUL - 112, (6-hydroxy-2,5,7,8-tetramethylchroman-2-yl)((S)-2-(hydroxymethyl)pyrrolidin-1-yl)methanone] | 96.5 | 95.4 | 93 | 93.1 | 0 | 79 | 96.3 |  |  |  |  |  | 
